Experimental data from US20240228499A1, “MASP-2 INHIBITORS AND METHODS OF USE” (Omeros Corporation, priority 2022, published 2024).
pKi: −log10 of the molar value. Structures can show the parent of a compound that is named as a salt.

How the values were obtained:
[1] = biological target: T1, MASP-2 (CCP1-CCP2-SP) (Homo sapiens, UniProt O00187); assay: Enzymatic assay for MASP-2 inhibitory activity (fluorogenic substrate); format: biochemical; conditions: room temperature, 20 mM Hepes pH 7.4, 20 min
T1 construct: 15 μL of Enzyme MASP-2 (CCP1-CCP2-SP) in Assay Buffer
T1 sequence (O00187 287-686 limits assumed): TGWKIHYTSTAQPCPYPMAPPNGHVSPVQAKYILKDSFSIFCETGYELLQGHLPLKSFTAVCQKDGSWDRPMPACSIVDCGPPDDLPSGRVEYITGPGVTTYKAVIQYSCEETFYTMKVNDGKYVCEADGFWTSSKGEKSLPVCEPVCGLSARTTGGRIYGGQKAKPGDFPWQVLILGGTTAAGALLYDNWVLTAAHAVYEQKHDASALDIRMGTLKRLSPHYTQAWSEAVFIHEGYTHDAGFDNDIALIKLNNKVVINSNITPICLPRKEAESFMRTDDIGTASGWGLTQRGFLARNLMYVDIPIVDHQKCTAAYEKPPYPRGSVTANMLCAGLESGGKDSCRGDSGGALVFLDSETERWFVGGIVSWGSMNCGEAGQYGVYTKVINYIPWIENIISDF
Experimental: The MASP-2 assay utilizes a fluorogenic substrate, based on the cleavage site for its natural substrate C2. The assay was run at room temperature in an assay buffer containing 20 mM HEPES, pH 7.4, 140 mM NaCl and 0.1% Tween 20. Assay parameters were adjusted such that the assay was linear with respect to time, enzyme, and substrate concentrations. Under the optimized assays conditions, IC50 values were equivalent to Ki values, except in the few cases of “tight binding” inhibitors. Cases of “tight binding” or possible “slow binding” inhibitors were handled by the methods described in Copeland R. A. (2013) Evaluation of Enzyme Inhibitors in Drug Discovery. 2nd Ed., John Wiley and Sons, Inc., Chapters 5-7.
The MASP-2 assay protocol was carried out as follows. Test compounds were serially diluted in DMSO and then 100 nL of each dilution was transferred to the assay plate(s). 10 μL of Assay Buffer was added, followed by 15 μL of Enzyme MASP-2 (CCP1-CCP2-SP) in Assay Buffer. 15 μL of Substrate in Assay Buffer was then added and the mixture was mixed to start the reaction. After 20 min at room temperature, 15 μL of a stop solution (0.1 M acetic acid) was added, the sample was mixed, and the plates were read on a SpectraMax i3× Microplate Reader with the data exported as an Excel file. Each assay plate included a “no inhibitor” (DMSO only) control, a “no enzyme” control, and a reference inhibitor control. % Activity values=100*(average test comp. fluorescence−average “no enzyme” fluorescence)/(average “DMSO only” fluorescence−average “no enzyme” fluorescence). IC50 and Ki replicate values were very reproducible, with values well within +2-fold.

[2] = biological target: T2, human a-thrombin (Homo sapiens, UniProt P00734); assay: Enzymatic assay for thrombin (fluorogenic peptide substrate Boc-VPR-AMC); format: biochemical; conditions: room temperature, 20 mM Hepes pH 7.4, 20 min
T2 construct: enzyme (human a-thrombin (BioPharm® Lab.)); purchased BioPharm Lab
Experimental: The thrombin assay utilizes a fluorogenic peptide substrate (Boc-VPR-AMC (R&D Systems) and was run at room temperature in an assay buffer containing 20 mM Hepes, pH 7.4, 140 mM NaCl and 0.1% Tween 20. Assay parameters were adjusted such that the assay was linear with respect to time, enzyme, and substrate concentrations. Under these optimized assays conditions, IC50 values were equivalent to Ki values, except in a few cases of “tight binding” inhibitors. Cases of “tight binding” or possible “slow binding” inhibitors were handled by the methods described in Copeland R.A. (2013) Evaluation of Enzyme Inhibitors in Drug Discovery. 2nd Ed. John Wiley and Sons, Inc., Chapters 5-7.
The thrombin assay protocol was carried out as follows. Test compounds were serially diluted in DMSO and then 100 nL of each dilution was transferred to the assay plate(s). 10 μL of Assay Buffer was added, followed by 15 μL of enzyme (human a-thrombin (BioPharm® Lab.)) in assay buffer. 15 μL of substrate in assay buffer was then added and the sample mixed to start the reaction. After 20 min at room temperature, 15 μL of a stop solution (0.1 M acetic acid) was added, the sample was mixed, and the plates were read on a SpectraMax® i3× Microplate Reader with the data exported as Excel files. Each assay plate included a “no inhibitor” (DMSO only) control, a “no enzyme” control, and a reference inhibitor control. % Activity values=100*(ave. test comp. fluorescence−ave. “no enz” fluorescence)/(ave. “DMSO only” fluorescence−ave. “no enz” fluorescence). IC50 and Ki values were very reproducible, with values falling well within +2-fold.

| pKi [1] | pKi [2] | SMILES |
| --- | --- | --- |
| > 6.30 | 5.60 to 6.30 | Cc1ccc(F)c(CNc2cnc3n(c2=O)[C@H](C(=O)NCc2ccc(N)nc2C)CC3)c1 [Compound 3, (S)—N-((6-amino-2-methylpyridin-3-yl)methyl)-3-((2-fluoro-5-methylbenzyl)amino)-4-oxo-4,6,7,8-tetrahydropyrrolo[1,2-a]pyrimidine-6-carboxamide] |
| > 6.30 | 5.60 to 6.30 | Cc1nc(N)ccc1CNC(=O)[C@@H]1CCc2ncc(NCc3cc(F)ccc3F)c(=O)n21 [Compound 28, (S)-N-((6-amino-2-methylpyridin-3-yl)methyl)-3-((2,5-difluorobenzyl)amino)-4-oxo-4,6,7,8-tetrahydropyrrolo[1,2-a]pyrimidine-6-carboxamide, di-trifluoroacetate] |
| > 6.30 | < 4.60 | Cc1cc(C)cc(CNc2cnc3n(c2=O)[C@H](C(=O)N[C@H](C)c2ccc(N)nc2)CC3)c1 [Compound 16] |
| 5.00 to 5.60 | < 4.60 | Cc1cc(C)cc(CNc2cnc3n(c2=O)[C@H](C(=O)NCc2cccnc2C)CC3)c1 [Compound 23, (S)-3-((3,5-dimethylbenzyl)amino)-N-((2-methylpyridin-3-yl)methyl)-4-oxo-4,6,7,8-tetrahydropyrrolo[1,2-a]pyrimidine-6-carboxamide, trifluoroacetate] |
| 5.60 to 6.30 | 4.60 to 5.00 | CCN(Cc1cc(C)cc(OC)c1)c1cnc2n(c1=O)[C@H](C(=O)NCc1ccc(N)nc1C)CC2 [Compound 67, (S)—N-((6-amino-2-methylpyridin-3-yl)methyl)-3-(ethyl(3-methoxy-5-methylbenzyl)amino)-4-oxo-4,6,7,8-tetrahydropyrrolo[1,2-a]pyrimidine-6-carboxamide] |
| > 6.30 | 5.60 to 6.30 | Cc1nc(N)ccc1CNC(=O)[C@@H]1CCc2ncc(NCc3cccc(CC#N)c3)c(=O)n21 [Compound 80, (S)-N-((6-amino-2-methylpyridin-3-yl)methyl)-3-((3-(cyanomethyl)benzyl)amino)-4-oxo-4,6,7,8-tetrahydropyrrolo[1,2-a]pyrimidine-6-carboxamide] |
| 5.60 to 6.30 | < 4.60 | Cc1cc(Cl)cc(CNc2cnc3n(c2=O)[C@H](C(=O)NCc2cccnc2)CC3)c1 [Compound 66] |
| > 6.30 | 5.00 to 5.60 | Cc1nc(N)ccc1CNC(=O)[C@@H]1CCc2ncc(NCc3cccc4c3OCCO4)c(=O)n21 [Compound 14, (S)-N-((6-amino-2-methylpyridin-3-yl)methyl)-3-(((2,3-dihydrobenzo[b][1,4]dioxin-5-yl)methyl)amino)-4-oxo-4,6,7,8-tetrahydropyrrolo[1,2-a]pyrimidine-6-carboxamide] |
| > 6.30 | > 6.30 | Cc1cc(C)cc(CNc2cnc3n(c2=O)[C@H](C(=O)NCc2cncc(Cl)c2)CC3)c1 [Compound 17, (S)—N-((5-chloropyridin-3-yl)methyl)-3-((3,5-dimethylbenzyl)amino)-4-oxo-4,6,7,8-tetrahydropyrrolo[1,2-a]pyrimidine-6-carboxamide, trifluoroacetate] |
| > 6.30 | 5.60 to 6.30 | Cc1nc(N)ccc1CNC(=O)[C@@H]1CCc2ncc(NCc3cccc(OC(F)(F)F)c3F)c(=O)n21 [Compound 39, (S)-N-((6-amino-2-methylpyridin-3-yl)methyl)-3-((2-fluoro-3-(trifluoromethoxy)benzyl)amino)-4-oxo-4,6,7,8-tetrahydro-pyrrolo[1,2-a]pyrimidine-6-carboxamide, di-trifluoroacetate] |
| > 6.30 | 5.60 to 6.30 | Cc1nc(N)ccc1CNC(=O)[C@@H]1CCc2ncc(NCc3cccc(F)c3C)c(=O)n21 [Compound 63] |
| 5.60 to 6.30 | < 4.60 | Cc1cc(C)cc(CNc2cnc3n(c2=O)[C@H](C(=O)NCc2ccnc(C)c2)CC3)c1 [Compound 19, (S)-3-((3,5-dimethylbenzyl)amino)-N-((2-methylpyridin-4-yl)methyl)-4-oxo-4,6,7,8-tetrahydropyrrolo[1,2-a]pyrimidine-6-carboxamide] |
| > 6.30 | > 6.30 | COc1cc(C)cc(CNc2cnc3n(c2=O)[C@H](C(=O)NCc2ccc(N)nc2C)CC3)c1 [Compound 2, (S)—N-((6-amino-2-methylpyridin-3-yl)methyl)-3-((3-methoxy-5-methylbenzyl)amino)-4-oxo-4,6,7,8-tetrahydropyrrolo[1,2-a]pyrimidine-6-carboxamide] |
| > 6.30 | 5.60 to 6.30 | CCOc1cccc(CNc2cnc3n(c2=O)[C@H](C(=O)NCc2ccc(N)nc2C)CC3)c1 [Compound 57, (S)—N-((6-amino-2-methylpyridin-3-yl)methyl)-3-((3-ethoxybenzyl)amino)-4-oxo-4,6,7,8-tetrahydropyrrolo[1,2-a]pyrimidine-6-carboxamide] |
| > 6.30 | 5.00 to 5.60 | Cc1nc(N)ccc1CNC(=O)[C@@H]1CCc2ncc(NCc3ccc(F)cc3)c(=O)n21 [Compound 52, (S)—N-((6-amino-2-methylpyridin-3-yl)methyl)-3-((4-fluorobenzyl)amino)-4-oxo-4,6,7,8-tetrahydropyrrolo[1,2-a]pyrimidine-6-carboxamide] |
| > 6.30 | 5.60 to 6.30 | COc1cccc(CNc2cnc3n(c2=O)[C@H](C(=O)NCc2ccc(N)nc2C)CC3)c1C [Compound 48, (S)-N-((6-amino-2-methylpyridin-3-yl)methyl)-3-((3-methoxy-2-methylbenzyl)amino)-4-oxo-4,6,7,8-tetrahydropyrrolo[1,2-a]pyrimidine-6-carboxamide, trifluoroacetate] |
| > 6.30 | 5.60 to 6.30 | Cc1nc(N)ccc1CNC(=O)[C@@H]1CCc2ncc(NCc3cc(F)cc(Cl)c3)c(=O)n21 [Compound 56, (S)—N-((6-amino-2-methylpyridin-3-yl)methyl)-3-((3-chloro-5-fluorobenzyl)amino)-4-oxo-4,6,7,8-tetrahydropyrrolo[1,2-a]pyrimidine-6-carboxamide] |
| > 6.30 | < 4.60 | Cc1cc(C)cc(CNc2cnc3n(c2=O)[C@H](C(=O)NCc2cc4cnc(C)cc4[nH]2)CC3)c1 [Compound 7, (S)-3-((3,5-dimethylbenzyl)amino)-N-((6-methyl-1H-pyrrolo[3,2-c]pyridin-2-yl)methyl)-4-oxo-4,6,7,8-tetrahydropyrrolo[1,2-a]pyrimidine-6-carboxamide, trifluoroacetate] |
| > 6.30 | 5.00 to 5.60 | Cc1nc(N)ccc1CNC(=O)[C@@H]1CCc2ncc(NCc3ccccc3)c(=O)n21 [Compound 59] |
| > 6.30 | 5.00 to 5.60 | COc1ccc(C)cc1CNc1cnc2n(c1=O)[C@H](C(=O)NCc1ccc(N)nc1C)CC2 [Compound 9, (S)-N-((6-amino-2-methylpyridin-3-yl)methyl)-3-((2-methoxy-5-methylbenzyl)amino)-4-oxo-4,6,7,8-tetrahydropyrrolo[1,2-a]pyrimidine-6-carboxamide, trifluoroacetate] |
| > 6.30 | 4.60 to 5.00 | Cc1nc(N)ccc1CNC(=O)[C@@H]1CCc2ncc(NCc3cccc(C(=O)O)c3)c(=O)n21 [Compound 13, (S)-3-(((6-(((6-amino-2-methylpyridin-3-yl)methyl)carbamoyl)-4-oxo-4,6,7,8-tetrahydropyrrolo[1,2-a]pyrimidin-3-yl)amino)methyl)benzoic acid] |
| > 6.30 | > 6.30 | N#Cc1cc(Cl)cc(CNc2cnc3n(c2=O)[C@H](C(=O)N[C@@H]2CCc4nc(N)ccc42)CC3)c1 [Compound 89, (S)-N-((R)-2-amino-6,7-dihydro-5H-cyclopenta[b]pyridin-5-yl)-3-((3-chloro-5-cyanobenzyl)amino)-4-oxo-4,6,7,8-tetrahydro-pyrrolo[1,2-a]pyrimidine-6-carboxamide] |
| > 6.30 | 5.60 to 6.30 | Cc1cccc(C(C)Nc2cnc3n(c2=O)[C@H](C(=O)NCc2cc4c(s2)CNC4)CC3)c1 (single isomer, unassigned) [Compound 69, di-trifluoroacetate] |
